Our source for the Activity and inhibition values is ChEMBL document CHEMBL5038569, “Targeting RECQL5 Functions, by a Small Molecule, Selectively Kills Breast Cancer in Vitro and in Vivo” (J Med Chem, 2021).

Each structure is given as a SMILES string. Calls of active or inactive are those of the source. The calls are words filed in the database; no cut-off is given here.

The nature of data set [1]: Toxicity in nude mouse xenografted with human MCF7 cells assessed as morphological changes in spleen at 50 mg/kg, po administered via oral gavage and measured after 30 days. The conditions noted are these: in vivo, 720 h, time 30 day. In kind it is organism-based. (In xenograft studies the graft and the host belong to different species.)
The subject of data set [2] is MCF7. Briefly: Induction of DNA damage in human MCF7 cells expressing wild type RECQL5 assessed as double strand breaks by measuring increase in phosphorylation of CHK1 at S345 residue at 20 uM measured up to 24 hrs by Western blot analysis. In kind it is functional, cell-based. The conditions noted are these: time hrs <=24. A general note: In western blotting, separated proteins are transferred to a membrane and probed.

For data set [3], the system named is MCF7. Description: Stabilization of RECQL5-RAD51 complex in RECQL5 knock out human MCF7 cells expressing wild type RECQL5-FLAG assessed as increase in RAD51-RECQL5-FLAG pull down at 20 uM measured after 8 hrs by coimmunoprecipitation assay. In kind it is cell-based.
Data set [4] concerns MCF7. Briefly: Induction of mitotic catastrophe phenotype in human cisplatin-resistant MCF7 cells assessed as nuclear bridge formation at 20 uM pretreated with cisplatin for 8 hrs followed by compound addition and measured after 24 hrs by immunofluorescence microscopic analysis. In kind it is functional, cell-based.
The species entered for data set [5] is Homo sapiens. Description: Inhibition of His-tagged human RECQL5 binding to [gamma 32P] labeled DNA substrate assessed as RECQL5-DNA complex formation at 10 uM preincubated for 30 mins followed by substrate addition and measured after 15 mins by gel electrophoresis and autoradiography method. The conditions noted are these: time 45.0 min.
The test system of data set [6] is MCF7. Briefly: Reversal of RECQL5 knock out resistance phenotype in human MCF7 cells expressing RFP assessed as reduction in cell viability at 6 to 25 uM measured after 72 hrs by MTT assay. It counts as functional, cell-based. The note with it: dose 6-25 µM. In general terms: Tetrazolium dyes change colour on reduction, which living cells bring about.

Turning to `O=C(Nc1cc(C(F)(F)F)cc(C(F)(F)F)c1)N[C@@H](c1ccccc1)c1nnc(SCc2ccccc2)o1`, in data set [1], the Activity result is recorded as “Non-Toxic”. Also, the outcome in data set [2], in data set [3] and in data set [4] was Active. Also, the inhibition entry in data set [5] is “inactive”. The result in data set [6] was inactive.
